From the NIST ThermoML archive (doi:10.1021/je050261u)

Experiment: xn = mol fraction of the nth substance listed
Conditions: Liquid, Vibrating tube method

CCCCCCC [heptane] + CCO
mass density [kg/m3]
Conditions	x2 = 0	x2 = 0.125	x2 = 0.25	x2 = 0.375	x2 = 0.5	x2 = 0.625	x2 = 0.75	x2 = 0.875
313.15 K, 35000 kPa	696.9	701.6	707	714.3	723.6	735	750.3	770.6
313.15 K, 40000 kPa	700.4	705.2	710.6	717.9	727.2	738.6	753.8	774.1
313.15 K, 45000 kPa	703.9	708.6	714.1	721.3	730.8	742.1	757.3	777.6
313.15 K, 50000 kPa	707.1	711.9	717.4	724.7	734.1	745.4	760.6	780.9
313.15 K, 55000 kPa	710.1	715.1	720.6	727.9	737.3	748.6	763.8	784.1
313.15 K, 60000 kPa	713.1	718.1	723.6	730.9	740.2	751.6	766.9	787.1
313.15 K, 65000 kPa	716	721	726.6	733.9	743.2	754.7	769.9	790.1
323.15 K, 100 kPa	657.7	661.8	666.9	674.1	683.5	695	710.6	731.7
323.15 K, 5000 kPa	663.4	667.4	672.6	679.7	689.2	700.5	716.1	737
323.15 K, 10000 kPa	668.7	672.7	678	685.2	694.6	705.8	721.3	742.1
323.15 K, 15000 kPa	673.4	677.6	682.9	690	699.4	710.7	726.1	746.7
323.15 K, 20000 kPa	678	682.2	687.6	694.7	704	715.3	730.6	751.1
323.15 K, 25000 kPa	682.5	686.8	692.1	699.2	708.5	719.8	735.1	755.5
323.15 K, 30000 kPa	686.5	690.9	696.2	703.4	712.7	723.9	739.1	759.5
323.15 K, 35000 kPa	690.4	694.7	700	707.3	716.6	727.8	743	763.4
323.15 K, 40000 kPa	694.1	698.5	703.7	711	720.4	731.6	746.8	767
323.15 K, 45000 kPa	697.7	702	707.4	714.6	724	735.2	750.3	770.6
323.15 K, 50000 kPa	701.1	705.4	710.8	718	727.4	738.6	753.8	774
323.15 K, 55000 kPa	704.3	708.6	714	721.3	730.6	741.9	757	777.2
323.15 K, 60000 kPa	707.4	711.8	717.2	724.5	733.8	745.1	760.2	780.3
323.15 K, 65000 kPa	710.3	714.7	720.2	727.5	736.8	748.1	763.2	783.4
333.15 K, 100 kPa	649.1	652.3	657.3	664.5	673.7	685.1	700.9	722.2
333.15 K, 5000 kPa	655.2	658.4	663.4	670.7	679.9	691.2	706.8	727.9
333.15 K, 10000 kPa	661	664.2	669.4	676.6	685.7	697	712.4	733.4
333.15 K, 15000 kPa	666.3	669.6	674.7	681.9	691.1	702.3	717.7	738.5
333.15 K, 20000 kPa	670.9	674.4	679.6	686.7	696	707.1	722.5	743.2
333.15 K, 25000 kPa	675.4	678.8	684.3	691.4	700.6	711.8	727	747.5
333.15 K, 30000 kPa	679.7	683.1	688.7	695.7	704.9	716	731.3	751.7
333.15 K, 35000 kPa	683.8	687.1	692.8	699.9	709.1	720.1	735.4	755.8
333.15 K, 40000 kPa	687.6	690.9	696.6	703.8	713	724	739.2	759.6
333.15 K, 45000 kPa	691.3	694.6	700.4	707.5	716.7	727.7	743	763.3
333.15 K, 50000 kPa	694.8	698.2	704	711.2	720.3	731.4	746.6	766.8
333.15 K, 55000 kPa	698.4	701.7	707.6	714.7	723.9	735	750.2	770.4
333.15 K, 60000 kPa	701.5	705	710.8	718	727.2	738.2	753.4	773.6
333.15 K, 65000 kPa	704.7	708.1	714	721.3	730.4	741.4	756.7	776.8
